Laboratory results reported in patent US12258327B2, “5-membered heteroaryl-containing aminopyridine compounds as EGFR inhibitors” (YUHAN CORPORATION, priority 2021, dated 2025).
Read-outs that look alike come from different tables or passages of the source.

Tests used:
EGFR L858R/C797S = EGFR L858R/C797S (Homo sapiens, UniProt P00533, C797S/L858R); assay: Biochemical EGFR kinase assay (Lance Ultra TR-FRET), double mutant L858R/C797S
Procedure: (§1) Biochemical EGFR kinase assays were conducted using Lance Ultra time-resolved fluorescence resonance energy transfer (TR-FRET) technology from Perkin-Elmer. Compounds of the invention were initially diluted to 20 mM in 100% DMSO for storage and made into kinase buffer solution to create a compound concentration ranging from 0.003 μM and 10 μM.
(§2) Each kinase reactions were incubated at room temperature for 1 hour and then stopped by the addition of 4 μL of stop solution (10 mM EDTA). The specific Europium-labeled-anti-phosphopeptide antibody (PerkinElmer, AD0069) diluted in LANCE detection buffer was then added to a final concentration of 2 nM. After 60 minutes incubation at room temperature the LANCE signal was measured on an EnVision Multilabel Reader (Perkin-Elmer). Excitation wavelength was set at 320 nm and emission monitored at 615 nm (donor) and 665 nm (acceptor). The IC50 values were determined using GraphPad prism software (GraphPad Software, Inc., San Diego, CA, USA).

EGFR wildtype (WT) = EGFR wildtype (WT) (Homo sapiens, UniProt P00533); assay: Biochemical EGFR kinase assay (Lance Ultra TR-FRET), wildtype
Chain of EGFR wildtype (WT) (P00533 25-1210): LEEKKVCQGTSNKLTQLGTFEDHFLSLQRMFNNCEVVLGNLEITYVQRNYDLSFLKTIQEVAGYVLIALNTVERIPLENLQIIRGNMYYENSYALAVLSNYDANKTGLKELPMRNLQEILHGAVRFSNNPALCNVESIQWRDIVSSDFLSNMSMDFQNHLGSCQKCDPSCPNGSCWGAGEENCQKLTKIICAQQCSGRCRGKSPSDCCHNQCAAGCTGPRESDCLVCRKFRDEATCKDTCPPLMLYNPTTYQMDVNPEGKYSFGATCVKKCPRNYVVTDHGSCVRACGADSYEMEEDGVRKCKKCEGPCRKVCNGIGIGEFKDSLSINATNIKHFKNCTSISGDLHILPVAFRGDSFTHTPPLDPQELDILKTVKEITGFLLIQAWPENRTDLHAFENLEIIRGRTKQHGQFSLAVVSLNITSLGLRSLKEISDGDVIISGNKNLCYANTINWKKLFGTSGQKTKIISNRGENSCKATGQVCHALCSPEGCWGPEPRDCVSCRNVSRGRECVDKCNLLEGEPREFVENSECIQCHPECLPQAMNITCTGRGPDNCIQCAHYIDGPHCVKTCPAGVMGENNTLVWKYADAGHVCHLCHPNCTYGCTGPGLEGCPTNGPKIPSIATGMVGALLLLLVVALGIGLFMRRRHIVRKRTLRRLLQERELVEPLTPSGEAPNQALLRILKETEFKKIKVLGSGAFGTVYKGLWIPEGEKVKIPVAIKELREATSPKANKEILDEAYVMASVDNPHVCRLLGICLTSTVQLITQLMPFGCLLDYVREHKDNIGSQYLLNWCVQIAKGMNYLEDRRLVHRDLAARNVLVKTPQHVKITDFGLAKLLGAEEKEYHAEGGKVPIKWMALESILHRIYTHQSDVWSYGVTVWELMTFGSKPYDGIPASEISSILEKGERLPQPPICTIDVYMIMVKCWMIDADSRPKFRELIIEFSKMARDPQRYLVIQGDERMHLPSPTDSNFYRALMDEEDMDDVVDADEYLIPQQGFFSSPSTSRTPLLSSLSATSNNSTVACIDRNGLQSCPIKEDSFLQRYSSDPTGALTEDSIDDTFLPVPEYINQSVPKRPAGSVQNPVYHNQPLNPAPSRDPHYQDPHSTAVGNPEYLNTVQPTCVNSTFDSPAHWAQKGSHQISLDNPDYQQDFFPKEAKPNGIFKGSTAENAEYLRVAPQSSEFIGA
Procedure: as §1, §2

EGFR L858R/T790M/C797S = EGFR L858R/T790M/C797S (Homo sapiens, UniProt P00533, C797S/L858R/T790M); assay: Biochemical EGFR kinase assay (Lance Ultra TR-FRET), triple mutant L858R/T790M/C797S
Chain of EGFR L858R/T790M/C797S (P00533 25-1210 T790M/C797S/L858R): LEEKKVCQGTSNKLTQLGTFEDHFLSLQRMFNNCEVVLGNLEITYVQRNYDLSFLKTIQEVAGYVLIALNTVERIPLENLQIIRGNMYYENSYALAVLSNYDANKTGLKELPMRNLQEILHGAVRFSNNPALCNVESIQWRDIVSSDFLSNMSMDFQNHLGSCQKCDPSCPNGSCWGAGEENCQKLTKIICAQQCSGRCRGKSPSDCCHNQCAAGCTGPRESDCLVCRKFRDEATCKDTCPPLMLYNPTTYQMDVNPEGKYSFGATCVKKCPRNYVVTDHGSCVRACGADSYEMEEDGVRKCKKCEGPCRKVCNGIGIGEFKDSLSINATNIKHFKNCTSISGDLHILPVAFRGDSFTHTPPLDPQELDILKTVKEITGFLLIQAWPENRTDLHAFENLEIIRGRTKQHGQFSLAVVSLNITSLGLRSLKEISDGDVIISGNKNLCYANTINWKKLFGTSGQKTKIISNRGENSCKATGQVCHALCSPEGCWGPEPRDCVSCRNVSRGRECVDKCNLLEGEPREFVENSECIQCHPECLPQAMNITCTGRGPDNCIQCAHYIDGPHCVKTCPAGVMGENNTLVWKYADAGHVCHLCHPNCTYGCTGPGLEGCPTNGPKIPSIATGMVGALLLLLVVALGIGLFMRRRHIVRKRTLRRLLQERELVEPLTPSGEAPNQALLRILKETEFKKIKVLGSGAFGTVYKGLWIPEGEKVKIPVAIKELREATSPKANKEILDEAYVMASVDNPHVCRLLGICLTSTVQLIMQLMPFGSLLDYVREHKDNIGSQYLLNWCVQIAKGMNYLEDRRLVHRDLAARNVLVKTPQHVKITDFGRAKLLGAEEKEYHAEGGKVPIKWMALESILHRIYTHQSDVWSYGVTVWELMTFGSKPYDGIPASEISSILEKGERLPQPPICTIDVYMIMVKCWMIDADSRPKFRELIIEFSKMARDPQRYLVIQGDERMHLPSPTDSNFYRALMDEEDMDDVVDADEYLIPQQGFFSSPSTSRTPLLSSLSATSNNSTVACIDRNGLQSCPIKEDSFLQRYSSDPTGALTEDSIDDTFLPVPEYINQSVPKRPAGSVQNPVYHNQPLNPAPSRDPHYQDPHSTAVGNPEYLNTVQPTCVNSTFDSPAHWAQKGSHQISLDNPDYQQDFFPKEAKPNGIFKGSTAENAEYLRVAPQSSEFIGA
Procedure: as §1, §2

EGFR del19/T790M/C797S = EGFR del19/T790M/C797S (Homo sapiens, UniProt P00533, C797S/DEL746-750/T790M); assay: Biochemical EGFR kinase assay (Lance Ultra TR-FRET), triple mutant del19/T790M/C797S
Chain of EGFR del19/T790M/C797S (P00533 with tags, fused parts or gaps DEL746-750/T790M/C797S): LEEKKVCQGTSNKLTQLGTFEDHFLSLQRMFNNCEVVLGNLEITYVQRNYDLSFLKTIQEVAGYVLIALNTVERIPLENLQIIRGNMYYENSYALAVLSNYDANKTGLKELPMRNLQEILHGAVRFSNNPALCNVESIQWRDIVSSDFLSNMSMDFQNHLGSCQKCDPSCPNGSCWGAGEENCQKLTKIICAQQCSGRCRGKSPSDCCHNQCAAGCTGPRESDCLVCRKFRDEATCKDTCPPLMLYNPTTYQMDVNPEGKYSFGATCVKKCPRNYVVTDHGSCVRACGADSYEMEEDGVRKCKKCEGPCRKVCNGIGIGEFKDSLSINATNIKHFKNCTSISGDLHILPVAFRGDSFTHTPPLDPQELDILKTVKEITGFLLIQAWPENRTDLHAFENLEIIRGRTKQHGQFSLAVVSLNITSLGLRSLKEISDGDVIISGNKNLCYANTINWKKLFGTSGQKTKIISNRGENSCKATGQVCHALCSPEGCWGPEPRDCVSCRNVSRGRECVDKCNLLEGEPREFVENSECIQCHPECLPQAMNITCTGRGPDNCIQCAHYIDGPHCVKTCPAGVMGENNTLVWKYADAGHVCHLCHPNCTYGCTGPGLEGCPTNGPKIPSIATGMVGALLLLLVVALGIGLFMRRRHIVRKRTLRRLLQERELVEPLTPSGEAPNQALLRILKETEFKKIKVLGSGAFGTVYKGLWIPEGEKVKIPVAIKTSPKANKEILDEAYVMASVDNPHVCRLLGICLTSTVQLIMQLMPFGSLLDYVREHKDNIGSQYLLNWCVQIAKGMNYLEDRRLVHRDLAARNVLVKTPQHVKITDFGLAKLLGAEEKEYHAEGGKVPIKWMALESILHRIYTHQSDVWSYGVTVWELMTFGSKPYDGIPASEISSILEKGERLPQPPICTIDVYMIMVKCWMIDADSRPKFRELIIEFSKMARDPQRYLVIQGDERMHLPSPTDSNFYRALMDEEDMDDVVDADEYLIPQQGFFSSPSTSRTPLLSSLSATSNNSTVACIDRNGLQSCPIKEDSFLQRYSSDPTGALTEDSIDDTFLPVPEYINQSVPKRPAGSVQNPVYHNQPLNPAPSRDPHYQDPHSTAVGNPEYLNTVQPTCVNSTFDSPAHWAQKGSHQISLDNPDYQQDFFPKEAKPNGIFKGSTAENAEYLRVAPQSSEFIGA
Procedure: as §1, §2

[1] = Km ATP, read-out: IC50 L858R/C797S (nM) Km ATP
[2] = Km ATP, read-out: IC50 WT (nM) Km ATP
[3] = Km ATP, read-out: IC50 L858R/T790M/C797S (nM) Km ATP
[4] = Km ATP, read-out: IC50 del19/T790M/C797S (nM) Km ATP
[5] = IC50 L858R/C797S (nM) 100 μM ATP, 100 μM ATP
[6] = IC50 WT (nM) 100 μM ATP, 100 μM ATP
[7] = IC50 L858R/T790M/C797S (nM) 100 μM ATP, 100 μM ATP
[8] = IC50 del19/T790M/C797S (nM) 100 μM ATP, 100 μM ATP

Chain of EGFR L858R/C797S (P00533 25-1210 C797S/L858R): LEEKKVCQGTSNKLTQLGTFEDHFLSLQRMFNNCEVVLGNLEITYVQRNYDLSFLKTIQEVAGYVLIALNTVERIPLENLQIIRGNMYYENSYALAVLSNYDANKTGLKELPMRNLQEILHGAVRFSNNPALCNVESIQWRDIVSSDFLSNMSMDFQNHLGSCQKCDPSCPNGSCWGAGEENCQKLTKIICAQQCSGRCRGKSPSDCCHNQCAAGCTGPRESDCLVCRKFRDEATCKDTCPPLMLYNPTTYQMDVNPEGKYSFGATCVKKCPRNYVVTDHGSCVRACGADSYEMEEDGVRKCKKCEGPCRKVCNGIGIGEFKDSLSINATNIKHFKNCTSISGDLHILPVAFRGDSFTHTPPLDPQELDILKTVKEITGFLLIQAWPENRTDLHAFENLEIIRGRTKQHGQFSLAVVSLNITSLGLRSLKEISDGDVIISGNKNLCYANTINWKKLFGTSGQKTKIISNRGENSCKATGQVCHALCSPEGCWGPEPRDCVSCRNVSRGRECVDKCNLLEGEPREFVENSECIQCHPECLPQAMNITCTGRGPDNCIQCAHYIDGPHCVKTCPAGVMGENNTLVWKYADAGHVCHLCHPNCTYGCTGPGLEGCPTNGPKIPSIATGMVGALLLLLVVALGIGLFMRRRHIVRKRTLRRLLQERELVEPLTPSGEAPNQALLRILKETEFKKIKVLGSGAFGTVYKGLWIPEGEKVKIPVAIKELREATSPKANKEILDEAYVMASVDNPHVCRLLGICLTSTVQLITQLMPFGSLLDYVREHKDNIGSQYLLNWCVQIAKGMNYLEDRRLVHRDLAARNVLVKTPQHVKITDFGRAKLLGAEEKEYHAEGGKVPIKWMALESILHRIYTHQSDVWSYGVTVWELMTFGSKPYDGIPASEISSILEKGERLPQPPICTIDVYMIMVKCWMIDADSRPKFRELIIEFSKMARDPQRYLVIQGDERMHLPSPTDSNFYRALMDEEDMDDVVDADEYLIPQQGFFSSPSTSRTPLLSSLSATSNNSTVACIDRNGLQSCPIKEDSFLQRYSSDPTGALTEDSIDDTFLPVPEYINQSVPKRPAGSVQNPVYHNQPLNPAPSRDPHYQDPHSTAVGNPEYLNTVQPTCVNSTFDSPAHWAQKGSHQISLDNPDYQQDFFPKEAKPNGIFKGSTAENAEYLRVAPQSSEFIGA

IC50 (EGFR L858R/C797S; [1]) [nM]	IC50 (EGFR wildtype (WT); [2]) [nM]	IC50 (EGFR L858R/T790M/C797S; [3]) [nM]	IC50 (EGFR del19/T790M/C797S; [4]) [nM]	IC50 (EGFR L858R/C797S; [5]) [nM]	IC50 (EGFR wildtype (WT); [6]) [nM]	IC50 (EGFR L858R/T790M/C797S; [7]) [nM]	IC50 (EGFR del19/T790M/C797S; [8]) [nM]	SMILES
9.3	3.4	0.1	0.3					C[C@]1(O)CC[C@@H](Nc2cc(Nc3ccnc(-c4cnn(S(=O)(=O)C5CC5)c4)n3)ncc2-n2ccc(C(F)F)n2)CC1 [Example 172, (1s,4s)-4-((2-((2-(1-(Cyclopropylsulfonyl)-1H-pyrazol-4-yl)pyrimidin-4-yl)amino)-5-(3-(difluoromethyl)-1H-pyrazol-1-yl)pyridin-4-yl)amino)-1-methylcyclohexan-1-ol]
1	4.2	0.2	0.6					CC1(O)CCC(Nc2cc(Nc3ccnc(-c4cnn(S(=O)(=O)C5CCOC5)c4)n3)ncc2-c2ccn(C(F)F)n2)CC1 (centres unmarked) [Example 114, (1s,4s)-4-((5-(1-(Difluoromethyl)-1H-pyrazol-3-yl)-2-((2-(1-((tetrahydrofuran-3-yl)sulfonyl)-1H-pyrazol-4-yl)pyrimidin-4-yl)amino)pyridin-4-yl)amino)-1-methylcyclohexan-1-ol]
1		0.6	0.9	11.3	7830	1.9	1.4	Cn1ccc(-c2cnc(Nc3ccnc(-c4cnn(S(=O)(=O)C5CC5)c4)n3)cc2N[C@H]2CC[C@@H](C(C)(C)O)CC2)n1 [Example 42, 2-((1s,4s)-4-((2-((2-(1-(Cyclopropylsulfonyl)-1H-pyrazol-4-yl)pyrimidin-4-yl)amino)-5-(1-methyl-1H-pyrazol-3-yl)pyridin-4-yl)amino)cyclohexyl)propan-2-ol]
2.9	65.3	0.2	0.5	41.3	> 10000	1.1	0.4	CC1(O)CCC(Oc2cc(Nc3ccnc(-c4cnn(S(=O)(=O)C5CC5)c4)n3)ncc2-c2cnn(C(F)F)c2)CC1 (centres unmarked) [Example 73, 4-((2-((2-(1-(Cyclopropylsulfonyl)-1H-pyrazol-4-yl)pyrimidin-4-yl)amino)-5-(1-(difluoromethyl)-1H-pyrazol-4-yl)pyridin-4-yl)oxy)-1-methylcyclohexan-1-ol]
	9	0.3		8.5	1420	0.4	0.6	C[C@]1(O)CC[C@@H](Nc2cc(Nc3ccnc(-c4cnn(S(=O)(=O)C5CC5)c4)n3)ncc2-c2nc(C(F)F)cs2)CC1 [Example 122, (1s,4s)-4-((2-((2-(1-(Cyclopropylsulfonyl)-1H-pyrazol-4-yl)pyrimidin-4-yl)amino)-5-(4-(difluoromethyl)thiazol-2-yl)pyridin-4-yl)amino)-1-methylcyclohexan-1-ol]
	20.2	1.3	1.9					C[C@]1(O)CC[C@@H](Nc2cc(Nc3ccnc(-c4cnn(S(=O)(=O)C5CCCC5)c4)n3)ncc2-c2ccn(C(F)F)n2)CC1 [Example 115, (1s,4s)-4-((2-((2-(1-(Cyclopentylsulfonyl)-1H-pyrazol-4-yl)pyrimidin-4-yl)amino)-5-(1-(difluoromethyl)-1H-pyrazol-3-yl)pyridin-4-yl)amino)-1-methylcyclohexan-1-ol]
				7	> 10000		2.4	C[C@]1(O)CC[C@@H](Nc2cc(Nc3ccnc(-c4cnn(S(=O)(=O)C5CC5)c4)n3)ncc2-c2csc(C(F)(F)F)n2)CC1 [Example 51, (1s,4s)-4-((2-((2-(1-(Cyclopropylsulfonyl)-1H-pyrazol-4-yl)pyrimidin-4-yl)amino)-5-(2-(trifluoromethyl)thiazol-4-yl)pyridin-4-yl)amino)-1-methylcyclohexan-1-ol]
